# Measured values reported in patent US12642809B2, “Fucosylation and immune modulation in cancer” (H. LEE MOFFITT CANCER CENTER AND RESEARCH INSTITUTE, INC., priority 2019, dated 2026).
# Assays:
# SM1 melanoma tumors = SM1 melanoma tumors in C57BL/6 mice fed control or L-fucose water; format: in vivo, mouse
# Experimental: Tumors of SW1 or SMI melanoma cells from C3H/HeJ or C57BL/6 mice, respectively) were digested using 1× tumor digest buffer (0.5 mg/ml. Collagenase I, 0.5 mg/ml. Collagenase IV, 0.25 mg/ml. Hyalyronidase V. 0.1 mg/ml. DNAse I in HBSS (Millipore Sigma (St. Louis, MO)). Tumors were homogenized using the Miltenyi MACs dissociator. Red blood cells were lysed using ACK lysis buffer (Life Technologies, (Grand Island, NY)). Tumor homogenate cells were counted using a standard hemocytometer. (7) Flow Cytometry (a) TIL Profiling:
# Single-cell suspensions from tumor and spleen tissue were stained with Live/Dead Zombie NIR (Biolegend, (San Diego, CA)) at 1:1,000 in PBS for 20 min. Cell suspensions were spun down and stained with the following antibodies: APC anti-mouse CD3 (0.5 μg/mL, BD Biosciences (San Jose, CA)), Pacific Blue anti-mouse CD4 ([…], BD Biosciences (San Jose, CA)), BV785 anti-mouse CD8 (0.5 μg/mL, BD Biosciences (San Jose, CA)), PerCP anti-mouse CD25 ([…], BD Biosciences (San Jose, CA)), FITC anti-mouse F4/80 (0.5 μg/mL, BD Biosciences (San Jose, CA)), PeCy7 anti-mouse CD11c (0.5 μg/mL, BD Biosciences (San Jose, CA)), PE anti-mouse NK1.1 (0.5 μg/mL, BD Biosciences (San Jose, CA)), PE anti-mouse DX5 (0.5 μg/mL, BD Biosciences (San Jose, CA)), PerCP-Cy5.5 anti-mouse CD11b (0.5 μg/mL, BD Biosciences (San Jose, CA)). After staining, the cells were washed and fixed (2% formaldehyde), followed by another wash and flow cytometric analysis. The compensation controls were prepared using 0.5 μg/ml. of each antibody with beads UltraComp eBeads™, (ThermoFisher Scientific (Waltham, MA)). All samples were subject to flow cytometric analysis using a LSR Flow Cytometer (BD Biosciences (San Jose, CA)). Flow cytometric data was further analyzed using FlowJo™ analysis software (BD Biosciences (San Jose, CA)). TIL profiles were determined as a measure of TIL subpopulations per gram of tumor tissues or % of total splenocytes.
# FFPE mouse tumor sections were immunostained with FITC-conjugated AAL lectin (0.4 μg/mL, Vector Laboratories (Burlingame, CA)), rabbit anti-Mart-1 (0.2 μg/mL, Millipore Sigma (St. Louis, MO), and rabbit anti-S100 (0.2 μg/mL, Agilent Technologies (Santa Clara, CA)), followed by AlexaFluor 594 donkey anti-rabbit secondary antibody (0.05 μg/mL, ThermoFisher Scientific (Waltham, MA)). The slides were mounted with VECTASHIELD®+DAPI (Vector Laboratories (Burlingame, CA)). Microscopy images were acquired using a Keyence BZ-X710 microscope (Osaka, Japan), and images were measured for AAL-positive signal within MARTI-/S 100-positive regions (designated as melanoma regions of interest) using FIJI software (NIH). Statistical analysis was performed using GraphPad Prism™ (San Diego, CA).
# Four-to-six-week-old female C3HeN and male C57BL6 mice were purchased from Charles Rivers Laboratories for the indicated experiments. Four-to-six-week-old male NSG mice from the Lau laboratory breeding colony were used for the indicated experiments. Mice were housed in the Comparative Medicine Facility at H. Lee Moffitt Cancer Center and Research Institute. Mouse tumor volumes were measured using length, width and depth divided by 2. Generally, 10 mice were assigned to each indicated treatment cohort, and 1×10^6 melanoma cells were subcutaneously injected into the right rear flanks of the recipient mice. At each experimental endpoint, mice were humanely euthanized using CO2 inhalation in accordance to the American Veterinary Medical Association guidelines. […] All experiments were approved by the Institutional Animal Care and Use Committee (IACUC) in accordance with the National Research Council guidelines.
# SW1 or SMI mouse melanoma cells were injected into syngeneic C3H/HeN (or NSG) female or C57BI/6 male mice, respectively. […]
# melanoma tumors = details: cited from earlier work
# PD-L1 = assay: Flow cytometry of cell surface PD-L1 in melanoma cells; format: cell-based, human or mouse; details: 250 μM; WM793, SW1, SM1 cells
# Excerpt: FIGS. 22A, 22B, 22C, 22D, 22E, and 22F show reduced cell surface class II MHC during anti-PD-1 failure; L-PLA schematic and the effects of L-fucose on tumoral PD-L1 expression and peripheral human CD4^+ T cell fucosylation and IFNγ production/secretion. […] We stained for (i) HLA-DRB1 using anti-HLA-DRB1 followed by (+) oligo-conjugated PLA secondary and (ii) fucosylated glycan using biotinylated (“B”) AAL lectin followed by anti-biotin followed by (−) oligo-conjugated PLA secondary. Ligated PLA oligos were subjected to rolling circle amplification PCR (RCA PCR), giving rise to fluorescent punctae. […] Healthy human donor peripheral CD4^+ T cells were treated with DMSO (D) and 250 μM FUTi (i) or L-fuc (L-f) and subjected to (22E) IB analysis for changes in fucosylation (AAL IB) or (22F) ELISA assay to measure changes in IFNγ production/secretion. *=p-value<0.05.
# Indicated cells were treated for 72 h with DMSO, 250 μM fucosyltransferase inhibitor (FUTi) (Millipore Sigma (St. Louis, MO)), or 250 μM of L-fucose (Biosynth (Oak Terrace, IL)). After 72 h, cells were stained with 0.1 μM PKH26 (Millipore Sigma (St. Louis, MO)) prior to fixation in 4% formaldehyde solution. […]
# [1] = 100 mM L-fucose in drinking water
compound,measurement,setting,value
C[C@H](O)[C@@H](O)[C@@H](O)[C@H](O)C=O [L-fucose],decreased tumor volume,SM1 melanoma tumors; [1],~60%
same,increase in tumor fucosylation,SM1 melanoma tumors; [1],~4 fold
same,absolute counts of each TIL subpopulation,SM1 melanoma tumors; flow cytometry,significantly increased
same,increase in CD3+ T cell subpopulation,SM1 melanoma tumors; flow cytometry,~15 fold
same,increase in CD4+ and CD8+ T cells,SM1 melanoma tumors; flow cytometry,10-100 fold
same,increase in total TILs,SM1 melanoma tumors; flow cytometry,~10 fold
same,splenic lymphocyte profiles,SM1 melanoma tumors; flow cytometry,did not significantly alter
same,tumor suppression,melanoma tumors; 100 mM fucose dietary supplementation,increased tumor suppression
same,block/reduction of tumor growth (and metastasis),melanoma tumors; dietary L-fucose supplementation,> 50%
same,NK cells and CD4+ T cells in tumor samples,melanoma tumors; fucose supplemented mice,elevated
same,cell surface PD-L1,PD-L1,did not find that modulating fucosylation alters
